Assay results reported in patent US6825230B2, “Spiro and dispiro 1,2,4-trixolane antimalarials” (Medicines for Malaria Venture MMV, priority 2002, dated 2004).
Converted amounts (≈) assume the structure as drawn. Read-outs that look alike come from different tables or passages of the source.

Assays:
[1] = test system: chloroquine-resistant K1 strain of P. falciparum; assay: In vitro antimalarial semiautomated microdilution assay ([3H]-hypoxanthine incorporation), K1 strain; format: cell-based, Plasmodium falciparum; conditions: Plasmodium falciparum
Procedure: (§1) Various OZ compounds were tested by the semiautomated microdilution assay against intraerythrocytic forms of Plasmodium falciparum derived from asynchronous stock cultures.
(§2) Fifty percent inhibitory concentration (IC50) were estimated by Logit regression analysis.

[2] = test system: chloroquine-sensitive NF54 strain of P. falciparum; assay: In vitro antimalarial semiautomated microdilution assay ([3H]-hypoxanthine incorporation), NF54 strain; format: cell-based, Plasmodium falciparum; conditions: Plasmodium falciparum
Procedure: as §1, §2

[3] = test system: ANKA strain of P. berghei; assay: Single dose STI in vivo screen in infected mice; design: species or system Plasmodium berghei; conditions: for Survival (days) 10 mg/kg po: single 10 mg/kg po in 3% ethanol and 7% Tween 80; for Survival (days) 10 mg/kg po / Survival (days) 10 mg/kg SSV po / Survival (days) 10 mg/kg sc: untreated 6-7 days; for Activity (%) 10 mg/kg po: single 10 mg/kg po in 3% ethanol and 7% Tween 80 on day 1 post-infection; for Survival (days) 10 mg/kg SSV po: single 10 mg/kg po in SSV; for Activity (%) 10 mg/kg SSV po: single 10 mg/kg po in standard suspending vehicle (SSV) on day 1 post-infection; for Survival (days) 10 mg/kg sc: single 10 mg/kg sc in 3% ethanol and 7% Tween 80; for Activity (%) 10 mg/kg sc: single 10 mg/kg sc in 3% ethanol and 7% Tween 80 on day 1 post-infection
[4] = K1, 72 h, read-out: IC50 (ng/ml) K1, chloroquine-resistant K1 strain, 72 h incubation
[5] = NF54, 72 h, read-out: IC50 (ng/ml) NF54, chloroquine-sensitive NF54 strain, 72 h incubation
[6] = percent reduction in parasitemia on day 3

| SMILES | IC50 [1, 4] [ng/mL] | IC50 [2, 5] [ng/mL] | Survival (days) 10 mg/kg po [3] | Activity (%) 10 mg/kg po [3, 6] [%] | Survival (days) 10 mg/kg SSV po [3] | Activity (%) 10 mg/kg SSV po [3, 6] [%] | Survival (days) 10 mg/kg sc [3] | Activity (%) 10 mg/kg sc [3, 6] [%] | Survival (days) 3 mg/kg SSV po ([3]; single 3 mg/kg po in SSV) [days] | Activity (%) 3 mg/kg SSV po ([3]; single 3 mg/kg po in SSV, percent reduction in parasitemia on day 3) [%] | IC50 ([1]; chloroquine-resistant K1 strain, 72 h incubation, read-out: IC50 (ng/ml) K1) [ng/mL] | IC50 ([2]; chloroquine-sensitive NF54 strain, 72 h incubation, read-out: IC50 (ng/ml) NF54) [ng/mL] |
| --- | --- | --- | --- | --- | --- | --- | --- | --- | --- | --- | --- | --- |
| O=C(N1CCCC1)N1CCC2(CC1)OOC1(O2)C2CC3CC(C2)CC1C3 (stereo not drawn) [OZ203, Adamantane-2-spiro-3′-8′-(1′-pyrrolidinylcarbonyl)-1′,2′,4′-trioxa-8′-azaspiro[4.5]decane] | 3.9 (≈ 10.8 nM) | 6.7 (≈ 18.5 nM) | 7.3 days | 87 | 8.7 days | 99.42 | 9.7 days | 99.72 |  |  |  |  |
| NC(=O)CNC(=O)C[C@H]1CC[C@]2(CC1)OO[C@]1(O2)C2CC3CC(C2)CC1C3 [OZ306] | 3.9 (≈ 10.3 nM) | 3.6 (≈ 9.51 nM) |  |  | 9.2 days |  |  |  | 8.2 | 87 |  |  |
| O=C(O)c1ccc(C2(c3ccc(C(=O)O)cc3)OOC3(O2)C2CC4CC(C2)CC3C4)cc1 (stereo not drawn) [OZ135, Adamantane-2-spiro-3′-5′,5′-bis(4′-carboxyphenyl)-1′,2′,4′-trioxolane] | > 100 | > 100 | 5.3/5.3/5.3 days | 1 | 5.3/5.3/5.3 days | 0 | 5.3/5.3/5.3 days | 0 |  |  |  |  |
| O=C(CN1C(=O)c2ccccc2C1=O)N1CCC2(CC1)OOC1(O2)C2CC3CC(C2)CC1C3 (stereo not drawn) [OZ93, Adamantane-2-spiro-3′-8′-(phthalimidoacetyl)-1′,2′,4′-trioxa-8′-azaspiro[4.5]decane] | 3.3 (≈ 7.29 nM) | 0.92 (≈ 2.03 nM) | 6.7 days | 57 | 6.0 days | 3 | 13.3 days | 100 |  |  |  |  |
| O=C(O)C1(C(=O)O)COC2(CCC3(CC2)OOC2(O3)C3CC4CC(C3)CC2C4)OC1 (stereo not drawn) [OZ122, Adamantane-2-spiro-3′-11′,11′-dicarboxy-1′,2′,4′,9′,13′-pentaoxadispiro[4.2.5.2]pentadecane] |  |  | 5.7 days | 10 | 5.3 days | 3 | 5.0 days | 0 |  |  | > 100 | > 100 |
| CN(C)C[C@H]1CC[C@]2(CC1)OOC1(O2)C2CC3CC(C2)CC1C3 (stereo partly drawn) [OZ232] | 0.3 (≈ 0.933 nM) | 0.5 (≈ 1.56 nM) | 8.0 days | 76 | 7.3 days | 74 | 8.7 days | 99.94 |  |  |  |  |
| CC1(C)CC(NC2CCC3(CC2)OOC2(O3)C3CC4CC(C3)CC2C4)CC(C)(C)N1 (stereo not drawn) [OZ171] | 1.3 (≈ 3.11 nM) | 1.4 (≈ 3.34 nM) | 9.0 days | 98 | 7.0 days | 85 | 9.7 days | 99.94 |  |  |  |  |
| CC(C)(C)NC(=O)N1CCC2(CC1)OOC1(O2)C2CC3CC(C2)CC1C3 (stereo not drawn) [OZ143, Adamantane-2-spiro-3′-8′-(t-butylaminocarbonyl)-1′,2′,4′-trioxa-8′-azaspiro[4.5]decane] | 0.98 (≈ 2.69 nM) | 1.8 (≈ 4.94 nM) | 6.7 days | 48 | 6.7 days | 44 | 9.7 days | 99.85 |  |  |  |  |
| COC(=O)c1ncn(C[C@H]2CC[C@]3(CC2)OOC2(O3)C3CC4CC(C3)CC2C4)n1 (stereo partly drawn) [OZ234] | 3 (≈ 7.44 nM) | 3.6 (≈ 8.92 nM) | 6.0 days | 12 | 6.0 days | 0 | 6.3 days | 0 |  |  |  |  |
